Six compounds from patent US12569477B2, “Compositions for synergistically enhancing mitochondrial function” (MITOCHOLINE LTD, priority 2017, dated 2026) can be followed below.

For assay [1], the system named is whole-brain ATP levels. Conditions: for ATP, % (ATP levels in the brain at 15th min after ischemia onset, in percent to baseline): male rats, 10 mg/kg for 7 days, global ischemia, mean±SEM, baseline 100%, saline 35.3 ± 3.0. The protocol:
Then global ischemia was induced in rats by cardiac arrest under anesthesia and whole-brain ATP levels were measured by 31P NMR in vivo for 15 min. Results are presented in Table 3 as mean±SEM ATP levels in the brain at 15th min after ischemia onset, in percent to baseline (accepted for 100%).

The subject of assay [2] is primary neurons and astrocytes. Put plainly: Mitochondrial NADH autofluorescence in primary neurons and astrocytes. Format: cell-based, mouse. Conditions: for NADH autofluorescence, % of control: after 20 min of incubation; for NADH autofluorescence, % of control / Initial change of mitochondrial NADH level on application: DiSU 50 μM, NAM 20 μM, sodium succinate 50 μM.
Procedure: Mixed cultures of cortical neurons and glial cells were prepared as described, from mouse pups 1-3 days postpartum. Neurons were easily distinguishable from glia: they appeared phase bright, had smooth rounded somata and distinct processes, and positioned just above the focal plane of the glial layer. Cells were used at 14-21 DIV. Experiments were conducted in HBSS solution at the 37° C.
To estimate the mitochondrial pool of NADH, maximal activation of mitochondrial respiration is induced by uncoupler FCCP (mitochondrial NADH is taken 0) followed by inhibition of respiration by NaCN (NADH is maximal due to inhibition of consumption). This set up provides evaluation of several characteristics: the rate of NADH production in TCA cycle (recovery of the NADH signal after NaCN), total mitochondrial pool and redox index.
For assay [3], the system named is primary myotubes. The assay can be described thus: Autophagy/mitophagy: co-localization of mitochondria and lysosomes in primary myotubes. Format: cell-based, rat. The conditions noted are these: 50 μM DiSU+20 μM NAM or single components in corresponding molar amounts. The text has this: The upper panels show confocal images of cells loaded with two dyes MitoTracker Green (labeling mitochondria) and LysoTracker Red (labeling lysosomes); the lower panel: quotative evaluation of co-localization of mitochondria and lysosomes in cells. […] Values are presented as mean±SD. **P<0.001. Independent experiments (n) are indicated as dots in the scatter plot.

For assay [4], the system named is primary myotubes. The assay can be described thus: Mitochondrial membrane potential (TMRM) in primary myotubes. It counts as cell-based, rat. The conditions noted are these: DiSU 50 μM, NAM 20 μM, or both (2:1:0.4); n=67 myotubes.
Procedure: (§1) Primary Skeletal Muscle Cell culture. Primary myotube cells were obtained from postnatal day 0-2 (P0-P2) rat pups which were sacrificed by decapitation. Briefly, the rats were immersed in 70% ethanol and the hind-limbs removed under a dissection microscope, in dissection solution containing Dulbecco's Phosphate Buffered Saline (PBS) with penicillin streptomycin (5000 units/ml) and Amphotericin B (2.5 mg/L). The tissues were then digested in 0.2% collagenase solution at 37° C. for 30-40 minutes.
The reaction was stopped by adding 2-3 ml fetal bovine serum (FBS), and the tissue suspension was centrifuged at 2010 rpm (700 g) for 10 minutes. The cell pellet was resuspended in pre-warmed growth medium, Dulbecco's modified Eagle's medium (DMEM), containing 20% FBS, 100 i.u./ml penicillin and 200 i.u./ml streptomycin], and plated on 22 mm coverslips that were pre-coated with 0.2% gelatin for 1 hour at 37° C. […]
Tetramethyl rhodamine methyl ester (TMRM) was used to study the changes of the mitochondrial membrane potential (Δψm). […] TMRM fluorescence was excited at 543 nm (HeNe laser), and emission was measured at >560 nm. […] Therefore, the changes in potential are reflected by changes in fluorescence intensity within the mitochondria which is measured after thresholding out the background signal from the cytosol to give a mean value per pixel within the mitochondrial population of a cell. […]
The subject of assay [5] is cortical neurons and glial cells. The assay can be described thus: ATP levels in mixed primary cultures of cortical neurons and glial cells (AT1.03 probe, confocal microscopy). The conditions noted are these: same treatments as ATP, control 0.
Procedure: Mixed primary cultures of cortical neurons and glial cells were prepared from mouse pups 1-3 days postpartum, as described by Vaarmann A. et al., 2010 (Cell Calcium 2010, 48(2-3):176-82). For measurements of ATP, the cells at 14-21 DIV were transfected for 24 h with the ATP sensing probe AT1.03 (as described in Imamura H et al., PNAS 2009, 106(37):15651-15656) using Lipofectamine 2000 according to the manufacturer's instructions. […] Then, ATP levels in cells were measured using confocal microscopy. […] All data presented were obtained from at least 5 coverslips and 2-3 different cell preparations.
Mean of ATP levels in non-treated cells (control) was accepted for 100%. Effects of the treatments on ATP levels in cells (ΔATP) were calculated by formula: ΔATP=ATPtreat−ATPcontrol, wherein ATPtreat is ATP level in treated cells and ATPcontrol is ATP levels in control cells.
The subject of assay [6] is primary myotubes. Put plainly: Mitochondrial NADH redox index and NADH pool in myotube cultures. It counts as cell-based, rat. The conditions noted are these: blend 1: 100 μM DiSU+40 μM NAM; blend 2: 50 μM DiSU+20 μM NAM; choline (100, succinate (50 μM), NAM (50 μM)); FIG. 1B.
Procedure: as §1
The reaction was stopped by adding 2-3 ml fetal bovine serum (FBS), and the tissue suspension was centrifuged at 2010 rpm (700 g) for 10 minutes. The cell pellet was resuspended in pre-warmed growth medium, Dulbecco's modified Eagle's medium (DMEM), containing 20% FBS, 100 i.u./ml penicillin and 200 i.u./ml streptomycin], and plated on 22 mm coverslips that were pre-coated with 0.2% gelatin for 1 hour at 37° C. Cells were then cultured in a humidified CO2 incubator (5% CO2 in air) at 37° C. After 2 or 3 days, the medium was changed to a low-serum medium (DMEM containing 10% FBS without antibiotics), and was subsequently renewed every 3 or 4 days. All experiments were performed in vitro between days 2 and 11 in culture when spindle-shaped myoblasts had proliferated and aligned themselves for fusion (˜70% confluency).

Turning to `C[N+](C)(C)CCO.[Cl-]` [Choline chloride, choline chloride], the “ATP, % (ATP levels in the brain at 15th min after ischemia onset, in percent to baseline)” value in assay [1] amounted to 36.8 ± 5.0%.

Turning to `O=C([O-])CCC(=O)[O-].[K+].[K+]` [Dipotassium succinate, dipotassium succinate], the “ATP, % (ATP levels in the brain at 15th min after ischemia onset, in percent to baseline)” value in assay [1] is on record as 40.9 ± 9.0%.

`NC(=O)c1cccnc1` [NAM, nicotinamide]: the “Mitochondrial NADH pool, % of control” value in assay [2] (NAM 20 μM alone, short term (15-20 min)) is 116±8 % of control. Besides, in assay [3], the “Autophagy (co-localization of mitochondria and lysosomes)” value (shortened to “Autophagy”) is given as “not”. Besides, the “Increase in TMRM fluorescence (mitochondrial membrane potential) compared to control” value in assay [4] is recorded as “increase”.

With `O=C(O)c1cccnc1` [Nicotinic acid, nicotinic acid], the “ΔATP, % (ATPtreat−ATPcontrol)” value in assay [5] is listed as “+1%”.

`O=C([O-])CCC(=O)[O-].[Na+].[Na+]` [Sodium succinate, sodium succinate]: in assay [2], the “NADH autofluorescence, % of control” value is “not detected a noticeable increase”; the “Initial change of mitochondrial NADH level on application” value was “fast and significant decrease”. The “Autophagy” value in assay [3] is recorded as “not”. Moreover, the “ATP, % (ATP levels in the brain at 15th min after ischemia onset, in percent to baseline)” value in assay [1] worked out at 34.3 ± 2.4%. Also, in assay [6], the NADH redox index result was “did not induce significant changes”.

In the case of choline succinate salt (2:1) [DiSU], in assay [2], the “NADH autofluorescence, % of control” value was 123±6 % of control and the “Initial change of mitochondrial NADH level on application” value is given as “only slight initial decrease”. Besides, the “Autophagy” value in assay [3] was “significantly increase”. The “ATP, % (ATP levels in the brain at 15th min after ischemia onset, in percent to baseline)” value in assay [1] turned out to be 55.5 ± 4.8 %. In addition, the “ATP levels in the brain under normoxia” value in assay [1] (rats, normoxia) is given as “did not affect”. Besides, in assay [4], the “Increase in TMRM fluorescence (mitochondrial membrane potential) compared to control” value is reported as “increase”.
